Assay results published in patent US8604217B2, “Compound, a process for its preparation, a pharmaceutical composition, use of a compound, a method for modulating or regulating serine/threonine kinases and a serine/threonine kinases modulating agent” (Selvita S.A., priority 2009, dated 2013).
pIC50: −log10 of the molar value.

Legend:
[1] = test system: human myelomonocytic, biphenotypic leukemia MV4-11 cells; experiment: Growth inhibition test (MTS) on MV4-11 cells; assay type: cell-based; conditions: Homo sapiens, MV4-11, 72 hours, read-out: MV-4-11 ED50
Description: (§1) Ten thousand cells of human myelomonocytic, biphenotypic leukemia MV4-11 were inoculated into each well of a 96-well microplate (manufactured by Corning Corp.) using Iscove's MDM medium (culture medium) containing 10% fetal calf serum (FCS). Next day, a dimethyl sulfoxide (DMSO) solution of each test compound prepared in a concentration of 10 mmol/L was further diluted with culture medium to the desired concentrations (0.1, 0.5, 1, 2.5, 5 and 10 micromol/L), and the diluted solution was added to each well. The individual wells were further cultured in 5% carbon dioxide at 37° C. for 72 hours. After completion of the culture, 10 μl MTS (3-(4,5-Dimethyl-2-thiazolyl)-5-(carboxymethoxyphenyl)-2-(4-sulfophenyl)-2H-tetrazolium, inner salt assay (CellTiter96® AQueous One Solution Cell Proliferation Assay, Promega) was added to each well, and culturing was performed in 5% carbon dioxide at 37° C. for 2 hours. Using a microplate spectrophotometer (Synergy 2 multi-mode microplate reader (BioTek)), the absorbance of each well was measured at 490 nm. The value for cells not incorporated with a test compound was designated as 100%. By comparing these values with the absorbance difference obtained at the well in which each test compound was added, the cell viability (% viability) after treatment with the test compound was calculated.

PIM-1 = PIM-1 (Homo sapiens (Human), UniProt P11309); experiment: Luminometric kinase assay for PIM1 kinase (Kinase-Glo); assay type: biochemical; conditions: 1 μM ATP, 25 min at RT
Sequence of PIM-1 (P11309 whole entry): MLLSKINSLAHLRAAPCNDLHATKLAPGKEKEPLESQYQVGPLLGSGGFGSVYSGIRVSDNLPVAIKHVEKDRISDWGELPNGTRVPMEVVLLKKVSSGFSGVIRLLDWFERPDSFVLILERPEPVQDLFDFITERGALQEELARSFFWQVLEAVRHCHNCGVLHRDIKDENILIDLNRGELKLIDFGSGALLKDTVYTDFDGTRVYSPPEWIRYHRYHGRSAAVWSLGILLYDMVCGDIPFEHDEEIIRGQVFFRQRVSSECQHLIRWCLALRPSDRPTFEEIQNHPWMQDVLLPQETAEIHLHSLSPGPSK
Description: Kinase assay was performed using luminescent Kinase-Glo® (Promega) system. The Kinase-Glo® Luminescent Kinase Assay Platform provides a homogeneous, high-throughput screening method for measuring kinase activity by quantifying the amount of ATP remaining in solution following a kinase reaction. The luminescent signal is correlated with the amount of ATP present and is inversely correlated with the kinase activity. Appropriate amounts of both kinase and substrate were mixed in 96-well, white wall plate in the reaction buffer (8 mM MOPS/NaOH, pH7.0, 0.2 mM EDTA, 2 mM MgCl2). Tested compounds were diluted in DMSO and serial dilutions starting with 1 μM were added to the palates. Reaction was initiated by adding 1 μM of ATP solution and conducted for 25 min. at RT. Luminescent signal was detected by adding Kinase-Glo® reagent and measured using a microplate spectrophotometer (Synergy 2 multi-mode microplate reader (BioTek)). IC50 values were obtained by fitting sigmoidal dose-response curve (variable slope) using GraphPad Prism software.

[2] = test system: human hepatoma HepG2 cells; experiment: Growth inhibition test (MTS) on HepG2 cells; assay type: cell-based; conditions: 72 hours, read-out: HepG2 ED50
Description: as §1, with “Two” for “Ten”, “hepatoma HepG2” for “myelomonocytic, biphenotypic leukemia MV4-11”, “DMEM” for “Iscove's MDM”

[3] = test system: human acute lymphocytic leukemia E6.1 Jurkat cells; experiment: Growth inhibition test (MTS) on E6.1 Jurkat cells; assay type: cell-based; conditions: 72 hours, read-out: Jurkat ED50
Description: as §1, with “Twenty” for “Ten”, “acute lumphocytic” for “myelomonocytic, biphenotypic”, “E6.1 Jurkat” for “MV4-11”, “[…]” for “Iscove's MDM”

[4] = test system: human breast adenocarcinoma MCF7 cells; experiment: Growth inhibition test (MTS) on MCF7 cells; assay type: cell-based; conditions: Homo sapiens, MCF7, 72 hours, read-out: MCF-7 ED50
Description: as §1, with “Two” for “Ten”, “breast adenocarcinoma MCF7” for “myelomonocytic, biphenotypic leukemia MV4-11”, “Corp.), and” for “Corp.)”, “DMEM” for “Iscove's MDM”

[5] = test system: human prostate adenocarcinoma PC3 cells; experiment: Growth inhibition test (MTS) on PC3 cells; assay type: cell-based; conditions: Homo sapiens, PC-3, 72 hours, read-out: PC-3 ED50
From the text: as §1, with “Two” for “Ten”, “prostate adenocarcinoma PC3” for “myelomonocytic, biphenotypic leukemia MV4-11”, “Corp.), and” for “Corp.)”, “F12K (Ham's F12:[…] 1:1)” for “Iscove's MDM”

Row | SMILES | pIC50 [1] | pIC50 (PIM-1) | pIC50 [2] | pIC50 [3] | pIC50 [4] | pIC50 [5]
1 | CN(C)CCCN1CCN(c2nc3c(Br)c(Br)c(Br)c(Br)c3[nH]2)CC1 [Compound 75, 3-(4-(4,5,6,7-tetrabromo-1H-benzo[d]imidazol-2-yl)piperazin-1-yl)-N,N-dimethylpropan-1-amine] | 5.48 | 6.55 | 5.23 | 5.11 | – | –
2 | CN(C)CCN(Cc1ccccc1)c1nc2c(Br)c(Br)c(Br)c(Br)c2[nH]1 [Compound 158, N-benzyl-4,5,6,7-tetrabromo-N-(2-(dimethylamino)ethyl)-1H-benzo[d]imidazol-2-amine] | 5.31 | 7.20 | 5.45 | 5.07 | 5.08 | 5.05
3 | Brc1c(Br)c(Br)c2[nH]c(NCCCN3CCOCC3)nc2c1Br [Compound 192, 4,5,6,7-tetrabromo-N-(3-morpholinopropyl)-1H-benzo[d]imidazol-2-amine] | 5.29 | 7.34 | 5.21 | 5.12 | – | –
4 | Brc1c(Br)c(Br)c2[nH]c(NCCN3CCN(c4ncccn4)CC3)nc2c1Br [Compound 247, 4,5,6,7-tetrabromo-N-(2-(4-(pyrimidin-2-yl)piperazin-1-yl)ethyl)-1H-benzo[d]imidazol-2-amine] | 5.22 | 6.96 | 5.05 | 5.11 | 5.15 | –
5 | Brc1c(Br)c(Br)c2[nH]c(Nc3ccc4ccccc4c3)nc2c1Br [Compound 259, 4,5,6,7-tetrabromo-N-(naphthalen-3-yl)-1H-benzo[d]imidazol-2-amine] | 5.19 | – | 5.26 | 5.15 | 5.23 | 5.45
6 | Brc1c(Br)c(Br)c2[nH]c(N3CCCNCC3)nc2c1Br [Compound 260, 4,5,6,7-tetrabromo-2-(1,4-diazepan-1-yl)-1H-benzo[d]imidazole] | 5.84 | 7.52 | 5.15 | 5.27 | 5.25 | 5.25
7 | Fc1ccc(CNc2nc3c(Br)c(Br)c(Br)c(Br)c3[nH]2)cc1F [Compound 296, N-(3,4-difluorobenzyl)-4,5,6,7-tetrabromo-1H-benzo[d]imidazol-2-amine] | 5.38 | 6.77 | 5.23 | 5.09 | – | 5.38
8 | OC1CCC(Nc2nc3c(Br)c(Br)c(Br)c(Br)c3[nH]2)CC1 (centres unmarked) [Compound 309, 4-(4,5,6,7-tetrabromo-1H-benzo[d]imidazol-2-ylamino)cyclohexanol] | 5.26 | 7.80 | 5.31 | 5.09 | – | –
9 | Nc1cc(Br)c(Br)cc1Nc1nc2c(Br)c(Br)c(Br)c(Br)c2[nH]1 [Compound 317, 4,5-dibromo-N1-(4,5,6,7-tetrabromo-1H-benzo[d]imidazol-2-yl)benzene-1,2-diamine] | 5.40 | 6.22 | 5.36 | 5.15 | 5.18 | –

Molecules with a higher pIC50 [3], results first:

Row | pIC50 [1] | pIC50 (PIM-1) | pIC50 [2] | pIC50 [3] | pIC50 [4] | pIC50 [5] | SMILES
10 | 5.81 | 7.59 | 5.53 | 5.47 | – | – | Brc1c(Br)c(Br)c2[nH]c(NCCCN3CCCC3)nc2c1Br [Compound 58]
11 | 5.28 | 6.93 | 5.34 | 5.51 | – | – | Brc1c(Br)c(Br)c2[nH]c(N3CCN(CCN4CCCCC4)CC3)nc2c1Br [Compound 76, 4,5,6,7-tetrabromo-2-(4-(2-(piperidin-1-yl)ethyl)piperazin-1-yl)-1H-benzo[d]imidazole]
12 | 5.92 | 7.29 | 5.58 | 5.31 | 5.31 | 5.50 | CN(C)CCN1CCC(CNc2nc3c(Br)c(Br)c(Br)c(Br)c3[nH]2)C1 (centres unmarked) [Compound 166, 4,5,6,7-tetrabromo-N-((1-(2-(dimethylamino)ethyl)pyrrolidin-3-yl)methyl)-1H-benzo[d]imidazol-2-amine]
13 | 5.80 | – | 5.66 | 5.36 | 5.38 | 5.60 | Brc1cccc(Nc2nc3c(Br)c(Br)c(Br)c(Br)c3[nH]2)c1 [Compound 236, 4,5,6,7-tetrabromo-N-(3-bromophenyl)-1H-benzo[d]imidazol-2-amine]
14 | 5.59 | – | 5.47 | 5.31 | 5.29 | 5.29 | CN1CCCN(c2nc3c(Br)c(Br)c(Br)c(Br)c3[nH]2)CC1 [Compound 256, 4,5,6,7-tetrabromo-2-(4-methyl-1,4-diazepan-1-yl)-1H-benzo[d]imidazole]
15 | – | 7.33 | – | 5.35 | – | 5.33 | Brc1c(Br)c(Br)c2[nH]c(Nc3ccccn3)nc2c1Br [Compound 329, 4,5,6,7-tetrabromo-N-(pyridin-2-yl)-1H-benzo[d]imidazol-2-amine]
